Results from the NIST ThermoML archive (doi:10.1016/j.jct.2013.10.031).
± gives the expanded uncertainty stated by the source.

Details: for vapor or sublimation pressure: Liquid, Closed cell (Static) method; for mass density: Gas, Burnett expansion method

CCC [propane]
Details | vapor or sublimation pressure [kPa]
252.1 K | 236 ± 20
256.21 K | 273.3 ± 20
260.1 K | 311.1 ± 20
264.21 K | 358.7 ± 20
268.09 K | 406 ± 20
272.13 K | 460.2 ± 20
276.14 K | 519.7 ± 20
280.21 K | 585.8 ± 20
284.09 K | 653.2 ± 20
288.1 K | 731.4 ± 20
292.1 K | 814.2 ± 20
296.21 K | 906.2 ± 20
300.18 K | 1001.8 ± 20
304.19 K | 1107.5 ± 20
308.18 K | 1219.8 ± 20
312.17 K | 1339.6 ± 20
316.2 K | 1468.9 ± 20
320.19 K | 1606.7 ± 20

FCC(F)(F)F [1,1,1,2-tetrafluoroethane]
Details | vapor or sublimation pressure [kPa]
252.12 K | 127.2 ± 20
256.18 K | 151.4 ± 20
260.19 K | 178.5 ± 20
264.2 K | 209.6 ± 20
268.21 K | 244.3 ± 20
272.14 K | 283 ± 20
276.09 K | 326.1 ± 20
280.13 K | 374.9 ± 20
284.1 K | 428.7 ± 20
288.09 K | 487 ± 20
292.13 K | 554.1 ± 20
296.32 K | 630.3 ± 20
300.17 K | 707.1 ± 20
304.12 K | 792.4 ± 20
308.12 K | 887 ± 20
312.19 K | 991.8 ± 20
316.2 K | 1103.5 ± 20
320.09 K | 1220.6 ± 20

N#N [nitrogen]
mass density [kg/m3]
Details | 634.95 kPa | 845.67 kPa | 1127.1 kPa | 1502.9 kPa | 2004.5 kPa
322.97 K | – | 8.818 ± 0.22 | 11.749 ± 0.23 | – | 20.889 ± 0.27
322.98 K | 6.619 ± 0.21 | – | – | 15.668 ± 0.24 | –
